# Measurements published in ChEMBL document CHEMBL1201862, “PubChem BioAssay data set” (2004).
# Activity calls are given as the source filed them.
# What was measured:
# [1] = target: Serine/threonine-protein phosphatase PP1-alpha catalytic subunit (Homo sapiens, UniProt P62136); assay: PP1 phosphatase inhibitors, dose response, biochemical, fluorescence (AID 2394)
# [2] = target: Serine/threonine-protein phosphatase (Homo sapiens, UniProt Q9BPW0); assay: PP5 phosphatase inhibitors, dose response, biochemical, fluorescence (AID 2395)
# Chain of Serine/threonine-protein phosphatase (Q9BPW0 whole entry): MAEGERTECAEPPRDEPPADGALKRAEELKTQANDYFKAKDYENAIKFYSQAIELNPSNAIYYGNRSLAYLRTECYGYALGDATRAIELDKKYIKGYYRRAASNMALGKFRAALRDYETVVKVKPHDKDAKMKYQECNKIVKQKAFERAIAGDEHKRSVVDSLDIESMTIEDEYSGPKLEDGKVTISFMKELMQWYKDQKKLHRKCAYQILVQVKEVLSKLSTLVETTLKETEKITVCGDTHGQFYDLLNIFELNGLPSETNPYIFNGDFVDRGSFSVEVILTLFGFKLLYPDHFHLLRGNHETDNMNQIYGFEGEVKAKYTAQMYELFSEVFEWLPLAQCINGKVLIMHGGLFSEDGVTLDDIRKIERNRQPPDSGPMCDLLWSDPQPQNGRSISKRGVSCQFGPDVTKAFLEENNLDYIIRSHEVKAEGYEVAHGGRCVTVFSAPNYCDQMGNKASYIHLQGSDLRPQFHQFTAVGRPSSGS
# NADPH oxidase 1 = NADPH oxidase 1 (Homo sapiens, UniProt Q9Y5S8); format: functional, cell-based;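 note: Cell-based assay with luminescence read-out, IC50 derived from inhibitor dose-response curves; intracellular ROS from endogenous NOX1 in intact HT29 colon cancer cells; potency of inhibitors that lower the ROS luminescence signal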
# Chain of NADPH oxidase 1 (Q9Y5S8 whole entry): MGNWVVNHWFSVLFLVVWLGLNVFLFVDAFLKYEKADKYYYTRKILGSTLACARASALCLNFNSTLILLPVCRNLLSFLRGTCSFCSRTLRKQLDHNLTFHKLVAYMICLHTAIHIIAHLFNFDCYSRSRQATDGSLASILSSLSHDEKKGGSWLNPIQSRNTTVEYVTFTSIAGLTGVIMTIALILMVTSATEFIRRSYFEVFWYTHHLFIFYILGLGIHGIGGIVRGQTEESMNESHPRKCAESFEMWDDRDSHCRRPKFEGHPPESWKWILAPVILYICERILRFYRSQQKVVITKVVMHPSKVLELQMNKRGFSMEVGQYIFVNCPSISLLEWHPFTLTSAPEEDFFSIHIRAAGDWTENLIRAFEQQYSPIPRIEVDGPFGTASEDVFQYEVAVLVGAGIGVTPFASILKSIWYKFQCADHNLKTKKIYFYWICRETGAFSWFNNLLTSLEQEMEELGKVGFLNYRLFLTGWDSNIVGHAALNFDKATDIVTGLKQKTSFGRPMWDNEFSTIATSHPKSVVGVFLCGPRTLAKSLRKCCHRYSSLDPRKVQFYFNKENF
# [3] = P. falciparum Dd2 growth inhibitors, dose response, SYBR Green, dry powder samples, set 9 (AID 1159568); format: functional, cell-based
# [4] = target: Aryl hydrocarbon receptor (Homo sapiens, UniProt P35869); assay: Luminescence-based cell-based high throughput dose response assay for activators of the Aryl Hydrocarbon Receptor (AHR). [Related pubchem assays: 2796 (Primary screen (AHR activators in singlicate)), 2845 (Confirmation screen (AHR activators in triplicate)), 434939 (Counterscreen (PXR activators in triplicate)), 2804 (Summary (AHR activators))]; format: ADME
# Chain of Aryl hydrocarbon receptor (P35869 whole entry): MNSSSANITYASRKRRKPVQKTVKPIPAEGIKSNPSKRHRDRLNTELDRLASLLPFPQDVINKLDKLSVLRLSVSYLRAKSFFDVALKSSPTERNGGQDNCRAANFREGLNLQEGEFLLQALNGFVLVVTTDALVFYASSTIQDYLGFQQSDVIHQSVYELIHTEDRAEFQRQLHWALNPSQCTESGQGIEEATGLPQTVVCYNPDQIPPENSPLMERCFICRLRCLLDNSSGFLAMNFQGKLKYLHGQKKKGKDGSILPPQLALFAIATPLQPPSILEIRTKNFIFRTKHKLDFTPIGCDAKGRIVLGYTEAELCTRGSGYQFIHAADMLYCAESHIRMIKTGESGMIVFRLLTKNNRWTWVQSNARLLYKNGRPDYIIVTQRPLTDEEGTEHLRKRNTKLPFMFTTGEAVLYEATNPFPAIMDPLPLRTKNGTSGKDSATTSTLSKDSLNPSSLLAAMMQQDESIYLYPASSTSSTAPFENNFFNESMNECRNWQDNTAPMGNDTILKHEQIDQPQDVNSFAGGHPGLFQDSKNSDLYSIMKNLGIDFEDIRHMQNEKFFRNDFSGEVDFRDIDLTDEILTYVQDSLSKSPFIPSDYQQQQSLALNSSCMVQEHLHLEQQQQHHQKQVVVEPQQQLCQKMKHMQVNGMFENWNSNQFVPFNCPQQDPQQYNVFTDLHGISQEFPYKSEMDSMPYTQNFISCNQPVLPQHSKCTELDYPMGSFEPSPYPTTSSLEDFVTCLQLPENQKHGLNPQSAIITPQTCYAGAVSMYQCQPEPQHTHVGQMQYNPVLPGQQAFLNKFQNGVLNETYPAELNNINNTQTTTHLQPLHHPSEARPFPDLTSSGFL
# [5] = A cytotoxicity screen of small molecule inhibitors of the PhoP region in Salmonella typhi identified in the primary screen. [Related pubchem assays: 1850, 1864, 1985 ]; format: functional
# [6] = cytotoxicity in HPDE-C7 cells, cell-based, fluorescence, HTS (AID 430); format: functional; conditions: Homo sapiens
# [7] = cytotoxicity in KRAS-transformed pancreatic duct cells, primary screen, cell-based, fluorescence, HTS (AID 431); format: functional; conditions: Homo sapiens;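 note: cell line used: HPDE-C7K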
# [8] = A High Throughput Confirmatory Assay used to Identify Novel Compounds that Inhibit Mycobacterium Tuberculosis in the absence of Glycerol.; format: functional
# [9] = half-maximal inhibitory concentration for glucagon-like peptide-1 release, STC-1 cell line, dose-response (AID 1117345); format: functional, cell-based
# [10] = Glucagon-like peptide 1 release potency, NCI-H716 cell line, dose-response, half-maximal inhibitory concentration (AID 1117344); format: functional, cell-based
# Chain of Serine/threonine-protein phosphatase PP1-alpha catalytic subunit (P62136 whole entry): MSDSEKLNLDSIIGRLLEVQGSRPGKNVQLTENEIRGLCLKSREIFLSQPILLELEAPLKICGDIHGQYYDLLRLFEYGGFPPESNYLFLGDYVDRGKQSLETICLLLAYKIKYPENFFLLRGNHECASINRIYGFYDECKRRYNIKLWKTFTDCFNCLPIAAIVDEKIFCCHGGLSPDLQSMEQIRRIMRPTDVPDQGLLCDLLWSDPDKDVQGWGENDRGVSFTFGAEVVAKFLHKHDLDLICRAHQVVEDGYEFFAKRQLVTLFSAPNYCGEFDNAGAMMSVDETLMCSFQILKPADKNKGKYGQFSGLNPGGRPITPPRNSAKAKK
compound,measurement,setting,value
COC(=O)CCC(=O)OC1(C)C(=O)C=C2C=C(C3CC3)N(C3CCCC3)C=C2C1=O (configuration not stated),IC50,[1],> 67 µM (not active)
same,IC50,[2],11 µM (not active)
Clc1ccccc1-c1nc(-c2ccccc2)c(-c2ccccc2)[nH]1,IC50,NADPH oxidase 1,> 17 µM (not active)
C[C@@H]1CCCCO[C@H](CN(C)S(=O)(=O)c2ccc(F)cc2)[C@H](C)CN([C@@H](C)CO)C(=O)c2cc(N(C)C)ccc2O1,AC50,[3],5.44 µM (active)
COc1ccc(N2CCN(c3cc(C)c4ccc(O)cc4n3)CC2)cc1,EC50,[4],3.47 µM (active)
same,EC50,[5],> 50 µM (active)
COc1ccc(-n2nnc3c(SCC(=O)Nc4ccc5c(c4)OCCO5)ncnc32)cc1,EC50,[6],7.96 µM (active)
same,EC50,[7],8.32 µM (active)
Cc1ccc(S(=O)(=O)c2ccc3c(c2)Sc2ccc(Cl)cc2N3)cc1,IC50,NADPH oxidase 1,5.25 µM (active)
COCCOC(=O)c1ccc(NC(=O)COc2ccc([N+](=O)[O-])cc2)cc1,IC50,[8],> 100 µM (active)
COc1ccc(OC(=O)N(CC(=O)O)Cc2ccc(OCCc3nc(-c4ccccc4)oc3C)cc2)cc1 [MURAGLITAZAR],IC50,[9],1.54 µM (active)
same,IC50,[10],36.2 µM (inactive)
